In brackets after ≈: the same amount, converted by molar mass.
Assays:
[1] = Inhibition of human recombinant VACM1 binding to VAL4 expressed in U937 cells by adhesion test; format: cell-based; details: u-937
[2] = Oral bioavailability in rat; format: ADME, organism-based; details: in vivo
[3] = Oral bioavailability in dog; format: ADME, organism-based, Canis lupus familiaris; details: in vivo
[4] = Inhibition of T cell activation assessed as CD3-VACM interaction; format: functional, cell-based, Homo sapiens
[5] = Oral bioavailability in mouse; format: ADME, organism-based; details: in vivo
[6] = Inhibition of fibronectin binding to VAL4 expressed in Jurkat cells by adhesion test; format: cell-based, Homo sapiens
[7] = target: Integrin alpha-4/beta-1 (VLA-4) (Homo sapiens); assay: Inhibition of VCAM binding to integrin alpha4beta1 by human whole blood assay
[8] = Solubility at pH 7.4; format: physicochemical; details: buffer
[9] = Distribution coefficient, log D of the compound; format: physicochemical; details: octanol/water
[10] = Oral bioavailability in monkey; format: ADME, organism-based, Macaca mulatta; details: rhesus monkey, in vivo
U-937 = assay: Inhibition of human recombinant VACM1 binding to VAL4 expressed in U937 cells at 1 uM by adhesion test; format: cell-based

| Structure (SMILES) | IC50 [1] [nM] | also measured |
| --- | --- | --- |
| O=C(NC(Cc1ccc2nc(-c3ccncc3)ccc2c1)C(=O)O)c1c(Cl)cccc1Cl (stereo not drawn) | 381 |  |
| O=C(NC(Cc1ccc2nc(-c3ccccc3C(F)(F)F)ccc2c1)C(=O)O)c1c(Cl)cccc1Cl (stereo not drawn) | 92 |  |
| O=C(NC(Cc1ccc2nc(-c3c(F)cccc3F)ccc2c1)C(=O)O)c1c(Cl)cccc1Cl (stereo not drawn) | 372 |  |
| O=C(N[C@@H](Cc1ccc2nc(-c3c(Cl)cccc3Cl)ccc2c1)C(=O)O)c1c(Cl)cccc1Cl | 3.9 | bioavailability [2]: 41%; bioavailability [3]: 59%; IC50 [4]: 43 nM; bioavailability [5]: 35%; IC50 [6]: 1.6 nM; IC50 [7]: 95 nM; solubility [8]: 1.5 µg/mL (≈ 2.81 µM); logD [9]: 1.47; bioavailability [10]: 23% |
| O=C(NC(Cc1ccc2nc(-c3ccccc3Br)ccc2c1)C(=O)O)c1c(Cl)cccc1Cl (stereo not drawn) | 154 |  |
| O=C(NC(Cc1ccc2nc(-c3cc(Cl)nc(Cl)c3)ccc2c1)C(=O)O)c1c(Cl)cccc1Cl (stereo not drawn) | 8.6 |  |
| Cc1cccc(C)c1-c1ccc2cc(CC(NC(=O)c3c(Cl)cccc3Cl)C(=O)O)ccc2n1 (stereo not drawn) | 102 |  |
| COc1cccc(OC)c1-c1ccc2cc(CC(NC(=O)c3c(Cl)cccc3Cl)C(=O)O)ccc2n1 (stereo not drawn) | 20 |  |
| O=C(O)C(Cc1ccc2nc(-c3c(Cl)cccc3Cl)ccc2c1)NC(=O)[C@@H]1CCC(=O)N1Cc1ccccc1 (stereo partly drawn) | 15.3 |  |
| O=C(NC(Cc1ccc2nc(-c3ccc(Cl)cc3Cl)ccc2c1)C(=O)O)c1c(Cl)cccc1Cl (stereo not drawn) | 748 |  |
| O=C(NC(Cc1ccc2nc(-c3c(Cl)cccc3[N+](=O)[O-])ccc2c1)C(=O)O)c1c(Cl)cccc1Cl (stereo not drawn) | 6.5 |  |
| COc1ccc2ccccc2c1-c1ccc2cc(CC(NC(=O)c3c(Cl)cccc3Cl)C(=O)O)ccc2n1 (stereo not drawn) | 7.3 |  |
| O=C(NC(Cc1ccc2nc(-c3c(Cl)cccc3Cl)ccc2c1)C(=O)O)c1c(Cl)cccc1Cl (stereo not drawn) | 7.8 |  |
| O=C(NC(Cc1ccc2nc(-c3c(Cl)cccc3Cl)ccc2c1)C(=O)O)c1ccccc1 (stereo not drawn) | 5640 |  |
| O=C(N[C@H](Cc1ccc2nc(-c3c(Cl)cccc3Cl)ccc2c1)C(=O)O)c1c(Cl)cccc1Cl | > 3200 |  |
| Cc1cc(Cl)c(C(=O)NC(Cc2ccc3nc(-c4c(Cl)cccc4Cl)ccc3c2)C(=O)O)c(Cl)n1 (stereo not drawn) | 7.9 |  |
| O=C(NC(Cc1ccc2nc(-c3ccccc3)ccc2c1)C(=O)O)c1c(Cl)cccc1Cl (stereo not drawn) |  | inhibition (U-937): 24% |
| O=C(NC(Cc1ccc2nc(-c3c(F)cccc3Cl)ccc2c1)C(=O)O)c1c(Cl)cccc1Cl (stereo not drawn) | 20 |  |
| Cc1cccc(C)c1C(=O)NC(Cc1ccc2nc(-c3c(Cl)cccc3Cl)ccc2c1)C(=O)O (stereo not drawn) | 37.2 |  |
| O=C(NC(Cc1ccc2nc(-c3nccs3)ccc2c1)C(=O)O)c1c(Cl)cccc1Cl (stereo not drawn) |  | inhibition (U-937): 38% |
| CS(=O)(=O)c1ccc(C(=O)NC(Cc2ccc3nc(-c4c(Cl)cccc4Cl)ccc3c2)C(=O)O)c(Cl)c1 (stereo not drawn) | 3.5 |  |
| Cc1cccc(Cl)c1C(=O)NC(Cc1ccc2nc(-c3c(Cl)cccc3Cl)ccc2c1)C(=O)O (stereo not drawn) | 3.9 |  |
| CS(=O)(=O)c1ccc(-c2ccc3cc(CC(NC(=O)c4c(Cl)cccc4Cl)C(=O)O)ccc3n2)cc1 (stereo not drawn) |  | inhibition (U-937): 82% |
| O=C(NC(Cc1ccc2nc(-c3cc(C(F)(F)F)ccc3Cl)ccc2c1)C(=O)O)c1c(Cl)cccc1Cl (stereo not drawn) | 208 |  |
| O=C(O)C(Cc1ccc2nc(-c3c(Cl)cccc3Cl)ccc2c1)NC(=O)C1(c2ccc(Cl)cc2)CCCC1 (stereo not drawn) | 6.6 |  |
| O=C(NC(Cc1ccc2nc(-c3c(Cl)cccc3Cl)ccc2c1)C(=O)O)c1c(F)cccc1F (stereo not drawn) | 435 |  |
| COc1cccc(OC)c1C(=O)NC(Cc1ccc2nc(-c3c(Cl)cccc3Cl)ccc2c1)C(=O)O (stereo not drawn) | 53.7 |  |
| COc1cccc(OC)c1-c1ccc(C[C@H](NC(=O)c2c(Cl)cccc2Cl)C(=O)O)cc1 | 18 | IC50 [4]: 99 nM |

Reference: ChEMBL document CHEMBL1146257, “2,6-Quinolinyl derivatives as potent VLA-4 antagonists” (Bioorg Med Chem Lett, 2007)
